Article PMC8213421 (CPT: Pharmacometrics & Systems Pharmacology, 2021)

What was measured:
OAT3 [1] = conditions: read-out: OAT3 Ki; lowest reported value; cited from earlier work
NTCP = conditions: hepatic uptake, model; cited from earlier work
OATP1B1/1B3 = conditions: hepatic uptake, model; cited from earlier work
CYP3A4 [2] = conditions: human, in vivo, 600 mg, cited from earlier work
[3] = cited from earlier work
CYP3A4 [4] = conditions: multiple doses of rifampicin 600 mg q.d.; cited from earlier work
[5] = Venetoclax observed clinical PK; format: in vivo; conditions: human, plasma, oral
OAT3 [6] = target: T1, OAT3 (Homo sapiens, UniProt Q8TCC7); conditions: cited from earlier work
T1 sequence (Q8TCC7 1-542): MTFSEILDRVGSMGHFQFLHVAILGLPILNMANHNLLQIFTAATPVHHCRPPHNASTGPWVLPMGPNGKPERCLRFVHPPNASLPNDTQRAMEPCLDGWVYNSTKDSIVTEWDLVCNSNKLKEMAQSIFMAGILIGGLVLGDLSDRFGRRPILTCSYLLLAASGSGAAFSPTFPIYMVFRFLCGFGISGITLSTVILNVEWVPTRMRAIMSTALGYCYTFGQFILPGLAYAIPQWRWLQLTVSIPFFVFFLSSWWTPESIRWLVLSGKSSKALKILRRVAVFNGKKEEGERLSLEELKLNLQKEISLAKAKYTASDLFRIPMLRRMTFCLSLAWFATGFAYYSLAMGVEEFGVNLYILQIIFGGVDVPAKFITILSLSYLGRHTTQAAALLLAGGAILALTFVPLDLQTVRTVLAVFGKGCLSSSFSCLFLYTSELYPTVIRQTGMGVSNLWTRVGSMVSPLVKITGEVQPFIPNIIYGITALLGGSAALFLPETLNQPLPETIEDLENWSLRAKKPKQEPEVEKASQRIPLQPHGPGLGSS

CYP3A4 mRNA [7] = experiment: in vitro; conditions: human
OAT1 = target: T2, OAT1 (Homo sapiens, UniProt Q4U2R8); experiment: Transporter inhibition in transfected HEK293 cells; format: cell-based
T2 sequence (Q4U2R8 1-563): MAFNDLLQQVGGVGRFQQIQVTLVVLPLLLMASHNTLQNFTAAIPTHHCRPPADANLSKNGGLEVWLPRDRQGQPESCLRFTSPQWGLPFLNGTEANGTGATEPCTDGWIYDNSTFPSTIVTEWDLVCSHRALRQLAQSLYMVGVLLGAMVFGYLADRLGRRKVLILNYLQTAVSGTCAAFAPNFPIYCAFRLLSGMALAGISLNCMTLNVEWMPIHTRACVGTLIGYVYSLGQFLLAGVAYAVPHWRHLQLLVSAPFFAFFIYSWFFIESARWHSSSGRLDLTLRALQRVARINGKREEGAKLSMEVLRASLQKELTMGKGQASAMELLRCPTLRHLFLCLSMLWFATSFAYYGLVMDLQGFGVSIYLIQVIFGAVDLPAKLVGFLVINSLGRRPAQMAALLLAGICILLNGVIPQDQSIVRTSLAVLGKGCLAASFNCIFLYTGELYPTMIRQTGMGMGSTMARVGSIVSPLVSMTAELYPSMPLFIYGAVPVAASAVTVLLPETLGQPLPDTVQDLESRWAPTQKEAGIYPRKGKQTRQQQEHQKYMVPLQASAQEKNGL

OATP1B1 = target: T3, OATP1B1 (Homo sapiens, UniProt Q9Y6L6); experiment: Transporter inhibition in transfected HEK293 cells; format: cell-based
T3 sequence (Q9Y6L6 1-691): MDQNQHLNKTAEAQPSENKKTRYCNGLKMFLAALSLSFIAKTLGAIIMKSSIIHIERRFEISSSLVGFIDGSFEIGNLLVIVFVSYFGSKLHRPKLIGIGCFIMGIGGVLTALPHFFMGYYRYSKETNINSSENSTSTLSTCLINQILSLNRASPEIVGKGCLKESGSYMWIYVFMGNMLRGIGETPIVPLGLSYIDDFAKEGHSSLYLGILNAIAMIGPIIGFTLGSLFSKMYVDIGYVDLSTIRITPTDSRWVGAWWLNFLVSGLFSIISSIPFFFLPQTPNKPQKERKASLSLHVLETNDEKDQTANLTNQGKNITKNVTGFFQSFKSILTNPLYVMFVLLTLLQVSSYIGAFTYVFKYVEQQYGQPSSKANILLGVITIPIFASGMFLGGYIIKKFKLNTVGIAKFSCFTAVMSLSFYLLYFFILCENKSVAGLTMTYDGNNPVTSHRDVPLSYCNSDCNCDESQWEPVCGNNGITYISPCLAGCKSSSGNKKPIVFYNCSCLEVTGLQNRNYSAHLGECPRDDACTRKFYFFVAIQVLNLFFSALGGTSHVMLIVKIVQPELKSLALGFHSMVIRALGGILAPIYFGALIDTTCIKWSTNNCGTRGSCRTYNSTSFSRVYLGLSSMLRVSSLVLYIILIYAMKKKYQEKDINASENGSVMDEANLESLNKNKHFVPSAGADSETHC

CYP3A4 mRNA [8] = conditions: human, hepatocytes
CYP2C9 mRNA = experiment: CYP induction in cultured human hepatocytes
CYP2C8 mRNA = experiment: CYP induction in cultured human hepatocytes
CYP2C19 mRNA = experiment: CYP induction in cultured human hepatocytes; conditions: all three hepatocyte cultures
CYP3A4 [9] = experiment: PBPK; set-up: species or system human; conditions: based on simulated midazolam results
CYP2B6 mRNA = experiment: CYP induction in cultured human hepatocytes
OATP1B3 = target: T4, OATP1B3 (Homo sapiens, UniProt Q9NPD5); experiment: Transporter inhibition in transfected HEK293 cells; format: cell-based
T4 sequence (Q9NPD5 1-702): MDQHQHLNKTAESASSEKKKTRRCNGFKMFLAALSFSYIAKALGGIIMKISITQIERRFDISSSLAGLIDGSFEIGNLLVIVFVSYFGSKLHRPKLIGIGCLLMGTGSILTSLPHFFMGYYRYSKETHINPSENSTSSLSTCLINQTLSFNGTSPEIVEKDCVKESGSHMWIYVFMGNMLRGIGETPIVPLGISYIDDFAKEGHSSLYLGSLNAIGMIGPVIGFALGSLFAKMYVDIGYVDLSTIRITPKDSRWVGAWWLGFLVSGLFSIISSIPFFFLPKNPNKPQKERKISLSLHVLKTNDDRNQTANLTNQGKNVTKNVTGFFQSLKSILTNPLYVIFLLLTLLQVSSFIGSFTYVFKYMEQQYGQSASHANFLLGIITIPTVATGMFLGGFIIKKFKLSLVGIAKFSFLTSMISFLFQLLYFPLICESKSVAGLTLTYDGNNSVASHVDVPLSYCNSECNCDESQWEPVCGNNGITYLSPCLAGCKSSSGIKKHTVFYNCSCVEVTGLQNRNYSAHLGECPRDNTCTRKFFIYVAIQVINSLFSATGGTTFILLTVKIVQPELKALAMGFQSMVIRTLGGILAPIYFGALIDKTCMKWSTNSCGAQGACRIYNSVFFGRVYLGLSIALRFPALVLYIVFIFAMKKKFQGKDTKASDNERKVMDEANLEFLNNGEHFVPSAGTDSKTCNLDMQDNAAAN

CYP1A2 mRNA = experiment: CYP induction in cultured human hepatocytes
CYP3A4 [10] = conditions: patients, cited from earlier work
human P‐gp = human P‐gp (Homo sapiens, UniProt P08183); experiment: P-gp inhibition assay, bidirectional digoxin permeability in Caco-2 cells; format: cell-based
OCT2 = target: T5, OCT2 (Homo sapiens, UniProt O15244); experiment: Transporter inhibition in transfected HEK293 cells; format: cell-based
T5 sequence (O15244 1-555): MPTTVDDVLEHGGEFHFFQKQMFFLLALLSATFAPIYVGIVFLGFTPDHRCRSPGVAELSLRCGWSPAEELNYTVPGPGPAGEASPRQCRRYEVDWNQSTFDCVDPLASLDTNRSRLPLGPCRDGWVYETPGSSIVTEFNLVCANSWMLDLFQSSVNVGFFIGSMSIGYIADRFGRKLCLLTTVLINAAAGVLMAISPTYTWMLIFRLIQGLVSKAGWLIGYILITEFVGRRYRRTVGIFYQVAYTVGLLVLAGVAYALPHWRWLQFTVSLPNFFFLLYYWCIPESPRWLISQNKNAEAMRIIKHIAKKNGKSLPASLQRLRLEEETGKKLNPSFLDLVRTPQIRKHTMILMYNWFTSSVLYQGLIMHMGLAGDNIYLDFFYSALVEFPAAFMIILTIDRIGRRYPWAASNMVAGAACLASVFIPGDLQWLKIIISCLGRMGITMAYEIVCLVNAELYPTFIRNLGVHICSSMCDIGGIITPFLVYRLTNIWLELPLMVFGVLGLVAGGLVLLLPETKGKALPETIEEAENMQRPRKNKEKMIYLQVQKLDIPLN

CYP3A4 [11] = conditions: ivosidenib PBPK model; cited from earlier work
OAT3 [12] = target: T1, OAT3; experiment: Transporter inhibition in transfected HEK293 cells; format: cell-based
[13] = human, cultured human hepatocytes

Sequence of human P‐gp (P08183 whole entry): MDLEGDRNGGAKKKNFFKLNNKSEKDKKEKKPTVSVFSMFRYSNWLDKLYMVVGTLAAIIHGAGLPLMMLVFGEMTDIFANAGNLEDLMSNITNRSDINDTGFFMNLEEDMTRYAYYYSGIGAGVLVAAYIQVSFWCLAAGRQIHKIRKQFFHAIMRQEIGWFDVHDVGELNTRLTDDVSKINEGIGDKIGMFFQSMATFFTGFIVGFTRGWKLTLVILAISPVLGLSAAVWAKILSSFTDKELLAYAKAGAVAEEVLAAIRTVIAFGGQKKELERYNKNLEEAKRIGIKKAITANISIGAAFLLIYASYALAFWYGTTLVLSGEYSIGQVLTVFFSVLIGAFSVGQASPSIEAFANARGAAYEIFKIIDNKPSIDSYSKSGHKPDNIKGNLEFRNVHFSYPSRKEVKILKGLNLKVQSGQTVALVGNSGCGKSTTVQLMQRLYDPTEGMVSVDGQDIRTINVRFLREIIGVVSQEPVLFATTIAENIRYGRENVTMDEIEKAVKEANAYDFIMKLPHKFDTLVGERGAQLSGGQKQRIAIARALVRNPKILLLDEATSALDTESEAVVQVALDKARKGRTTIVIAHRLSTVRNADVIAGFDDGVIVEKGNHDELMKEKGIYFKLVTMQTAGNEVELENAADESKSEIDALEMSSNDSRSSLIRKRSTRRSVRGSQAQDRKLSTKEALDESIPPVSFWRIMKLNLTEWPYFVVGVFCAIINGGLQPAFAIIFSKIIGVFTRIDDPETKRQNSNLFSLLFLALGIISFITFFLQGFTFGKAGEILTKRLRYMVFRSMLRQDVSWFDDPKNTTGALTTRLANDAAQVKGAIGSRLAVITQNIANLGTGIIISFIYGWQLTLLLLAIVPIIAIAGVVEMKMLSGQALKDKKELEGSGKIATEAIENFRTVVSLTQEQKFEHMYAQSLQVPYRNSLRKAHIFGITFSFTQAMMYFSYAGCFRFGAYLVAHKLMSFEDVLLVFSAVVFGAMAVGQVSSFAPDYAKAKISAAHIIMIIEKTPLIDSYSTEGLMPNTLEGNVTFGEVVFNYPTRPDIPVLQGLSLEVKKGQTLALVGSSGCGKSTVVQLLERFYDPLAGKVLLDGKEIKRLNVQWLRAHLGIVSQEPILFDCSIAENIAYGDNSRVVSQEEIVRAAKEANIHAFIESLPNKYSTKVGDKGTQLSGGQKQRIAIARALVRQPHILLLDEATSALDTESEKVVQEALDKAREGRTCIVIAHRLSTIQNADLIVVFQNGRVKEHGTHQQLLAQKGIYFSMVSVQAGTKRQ

CC(C)c1nc(N(C)S(C)(=O)=O)nc(-c2ccc(F)cc2)c1/C=C/[C@@H](O)C[C@@H](O)CC(=O)O [Rosuvastatin]
relative contribution of NTCP to uptake of rosuvastatin (NTCP): 35%
relative contribution of OATP1B1/1B3 to uptake of rosuvastatin (OATP1B1/1B3): 65%

Cc1ncc2n1-c1ccc(Cl)cc1C(c1ccccc1F)=NC2 [Midazolam]
reduction of midazolam AUC, i.v. (CYP3A4 [2]; iv): 51%
reduction of midazolam AUC, oral (CYP3A4 [2]; po): 92%

CC1(C)CCC(CN2CCN(c3ccc(C(=O)NS(=O)(=O)c4ccc(NCC5CCOCC5)c([N+](=O)[O-])c4)c(Oc4cnc5[nH]ccc5c4)c3)CC2)=C(c2ccc(Cl)cc2)C1 [Venetoclax]
estimated mean Vss/F from clinical data ([3]; patients): 3.67 L/kg
observed mean CL/F ([3]; venetoclax): 14.9 L/h
decrease of venetoclax AUC (CYP3A4 [4]): ~80%
decrease of venetoclax Cmax (CYP3A4 [4]): ~ 70%
Vd [5]: 0.36 to 1.78 L/kg

CN(Cc1cnc2nc(N)nc(N)c2n1)c1ccc(C(=O)N[C@@H](CCC(=O)O)C(=O)O)cc1 [Methotrexate]
reported methotrexate AUCR with probenecid (OAT3 [6]): 1.57 fold

N#Cc1ccnc(N2C(=O)CC[C@H]2C(=O)N(c2cncc(F)c2)[C@H](C(=O)NC2CC(F)(F)C2)c2ccccc2Cl)c1 [Ivosidenib]
EC50 (CYP3A4 mRNA [7]): 12.5 ± 9.2 µM
IC50 (OAT1): > 65 µM
IC50 (OATP1B1): 9.56 µM
CYP3A4 mRNA mean Emax (CYP3A4 mRNA [8]): 78.2 ± 113
CYP2C9 mRNA mean Emax (CYP2C9 mRNA; human hepatocytes, 3 donors): 3.39 ± 0.63
EC50 at 72 h (CYP2C9 mRNA; [13]): 3.23 ± 1.04 µM
CYP2C8 mRNA mean Emax (CYP2C8 mRNA; human hepatocytes, 3 donors): 3.79 ± 1.28
EC50 at 72 h (CYP2C8 mRNA; [13]): 8.1 ± 3.3 µM
effect on CYP2C19 mRNA levels (CYP2C19 mRNA): inconclusive
classification as CYP3A4 inducer as per regulatory guidance (CYP3A4 [9]): strong inducer
CYP2B6 mRNA mean Emax (CYP2B6 mRNA; human hepatocytes, 3 donors): 2.85 ± 1.53
EC50 at 72 h (CYP2B6 mRNA; [13]): 2.93 ± 0.65 µM
IC50 (OATP1B3): 22.8 µM
CYP1A2 mRNA induction (CYP1A2 mRNA; 3 donors, 0.05-90 μM once daily 3 days): no significant induction
increase of mean 4β‐OHC levels (CYP3A4 [10]; 500 mg ivosidenib): ~ 199%
increase of 4β‐OHC (CYP3A4 [10]; after 28 days of 100 mg b.i.d. and 100–1200 mg q.d. ivosidenib): up to 371%
IC50 (human P‐gp): 19.6 µM
IC50 (OCT2): > 65 µM
fm (fraction metabolized, CYP3A4) (CYP3A4 [11]): 0.865
IC50 (OAT3 [12]): 0.322 µM

COc1ccc2[nH]c([S+]([O-])Cc3ncc(C)c(OC)c3C)nc2c1 (stereo not drawn) [omeprazole, reference compound]
increase in CYP1A2 mRNA levels (CYP1A2 mRNA; prototypical inducer (positive control)): 104 ± 97 fold

CCC1(c2ccccc2)C(=O)NC(=O)NC1=O [phenobarbital, reference compound]
increase in CYP2B6 mRNA levels (CYP2B6 mRNA; prototypical inducer (positive control), human hepatocytes): 13 ± 4.7 fold
